Where “and” joins values, the source holds several entries; their conditions need not be identical. Equal values may be shown once.
Columns and labels:
[1] = Stopped-flow kinetic analysis of tetrazines with eq-5-hydroxy-trans-cyclooctene in PBS buffer at 25° C.; conditions: for k2, second order rate constant / kobs: PBS pH 7.4, 25° C.; for k2, second order rate constant: linear regression of kobs; for kobs: 0.025 mM tetrazine; for krel: relative to 5b, PBS, 25° C.
Method: Solutions (5 mL) of tetrazines 5b, 6c, 5l, 6a and 4f (0.050 mM) were prepared in PBS buffer (pH 7.4). Solutions (10 mL) of eq-5-hydroxy-trans-cyclooctene (0.50, 0.60, 0.70, 0.80 mM) were prepared in PBS buffer (pH 7.4). The reactions between tetrazines and trans-cyclooctene were measured under pseudo-first order conditions using SX 18MV-R stopped-flow spectrophotometer (Applied Photophysics Ltd.). Each solution of tetrazine and trans-cyclooctene were injected in equal volumes via 3 mL syringes into the stopped-flow instrument at 25° C., resulting in final concentration of 0.025 mM of tetrazines and 0.25, 0.30, 0.35, 0.40 mM trans-cyclooctene. The reaction was monitored by the decay of absorbance associated with the tetrazines (5b at 263 nm, 6c at 268 nm, 5l at 274 nm, 6a at 296 nm, 4f at 266 nm). Reaction were repeated in triplicate. With Prism software, an observed rate constant, kobs, was obtained by nonlinear regression. Second order rate constants, k2, were calculated by linear regression between kobs and final concentration of trans-cyclooctene.

Experimental log P = type: physicochemical
[2] = Tetrazine stability in PBS buffer in ambient light at 25° C.; type: physicochemical; conditions: PBS buffer pH 7.4, ambient light, day 0-5
Method: Solutions (3 mL) of tetrazine 5b, 5l and 6c (400 μM) were prepared in PBS buffer (pH 7.4) in vials and stored in ambient light at 25° C. Tetrazine concentrations were determined by recording the absorbance at 518 nm (6c) and 520 nm (5b and 5l) in cuvettes in day 0, 1, 3 and 5. A solution of 6a (50 μM) was prepared in PBS buffer (pH 7.4) in vials and stored in ambient light at room temperature. Tetrazine concentration was determined by recording the absorbance at 520 nm in cuvettes at day 0, 1, 3 and 5.

[3] = Stopped-flow kinetic analysis of MAGL tetrazines with eq-5-hydroxy-trans-cyclooctene in MeOH at 25° C.; conditions: for kobs: 0.04 mM tetrazine, 0.40 mM trans-cyclooctene, MeOH; for kobs / krel: 25° C.; for krel: relative to 12, MeOH
Method: Solutions (3 mL) of tetrazines 100a, 100b, 100c and 12 (0.080 mM) was prepared in MeOH. Solutions (3 mL) of eq-5-hydroxy-trans-cyclooctene (0.80 mM) were prepared in MeOH. The reactions between tetrazines and trans-cyclooctene were measured under pseudo-first order conditions using SX 18MV-R stopped-flow spectrophotometer (Applied Photophysics Ltd.). Each solution of tetrazine and trans-cyclooctene were injected in equal volumes via 3 mL syringes into the stopped-flow instrument at 25° C., resulting in final concentration of 0.04 mM of tetrazines and 0.40 mM trans-cyclooctene. The reaction was monitored by the decay of absorbance associated with the tetrazines (10a and 10b at 300 nm, 10c at 280 nm). Reaction were repeated in triplicate. With Prism software, an observed rate constant, kobs, was obtained by nonlinear regression.

human MAGL enzyme = target: T1, human MAGL enzyme (Homo sapiens, UniProt Q99685); test: MAGL in vitro activity assay (7-HCA substrate, fluorescence); type: biochemical; conditions: human MAGL pre-treated 30 min at room temperature, 7-HCA substrate 1 h; read-out: IC50, inhibition of MAGL activity in vitro
T1 sequence (Q99685 1-303): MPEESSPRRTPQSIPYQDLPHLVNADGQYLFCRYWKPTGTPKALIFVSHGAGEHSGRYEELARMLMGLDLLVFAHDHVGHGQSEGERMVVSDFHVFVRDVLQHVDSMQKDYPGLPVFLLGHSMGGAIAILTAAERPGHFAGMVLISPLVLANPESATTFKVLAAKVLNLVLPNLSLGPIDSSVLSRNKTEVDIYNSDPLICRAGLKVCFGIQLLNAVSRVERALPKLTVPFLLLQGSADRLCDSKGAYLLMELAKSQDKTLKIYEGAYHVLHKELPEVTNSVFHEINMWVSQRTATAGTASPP
Method: MAGL in vitro activity assay. The MAGL in vitro activity assay was performed based on a reported protocol. Briefly, human MAGL enzyme was pre-treated with compounds at room temperature for 30 min, and subsequently incubated with 7-hydroxycoumarinyl arachidonate (7-HCA) as a substrate at room temperature for 1 h. The fluorescence signals were measured on an Envision plate reader (excitation 355 nm, emission 460 nm).

endogenous MAGL = target: T2, endogenous MAGL (Homo sapiens, UniProt Q99685); test: Labeling of endogenous MAGL in live cells, gel-based ABPP with TCO-TAMRA; type: cell-based
T2 sequence (Q99685 1-303): T1 sequence (Q99685 1-303)
Method: Cell culture and probe treatment. Human brain vascular pericytes were cultured in Dulbecco's Modified Eagle Medium/Nutrient Mixture F-12 (DMEM/F-12) GlutaMAX media supplemented with 5% heat-inactivated fetal bovine serum (HI FBS), 1× pericyte growth supplement (PGS), and 1× penicillin-streptomycin at 37° C. with 5% CO2 in a humidified environment. Probe treatment was performed in duplicates. Cells were plated in 6-well plates and cultured overnight in growth media. Live cells were then treated with 300 nM KML29 as a competitor compound (or DMSO as a control) at 37° C. for 1 h. Cells were subsequently treated with probe 9 (0.3 nM-3.2 μM) at 37° C. for 1 h (cells pre-treated with KML29 were treated with 32 nM of probe 9), after which the cells were washed with fresh growth media. The media were then placed with fresh media containing 2 μM of TCO-TAMRA, and the cells were incubated at 37° C. for 30 min. To quench the reaction, the media were replaced with PBS containing 100 μM tetrazine amine, and the cells were washed with cold PBS and harvested with a scrapper. The suspensions were centrifuged at 10,000×g for 1 min at 37° C., and the cell pellets were lysed in PBS containing 0.25% sodium dodecyl sulfate (SDS) with sonication. The protein concentration was measured with a bicinchoninic acid (BCA) assay kit (Thermo Scientific) and normalized. In-gel fluorescence and data analysis. The proteomes were analyzed with 1.0 mm thick 4-12% bis-tris 15-well protein gels in 2-(N-morpholino)ethanesulfonic acid (MES) buffer. The gels were scanned with a Typhoon FLA 9500 Biomolecular Imager (GE Healthcare) with the TAMRA channel with 532 nm excitation and a 575 nm long pass emission filter. To measure the total protein loading, the gels were treated with ClearPage Instant Blue (CBS Scientific) overnight, and after brief destaining with water, scanned with an Odyssey Imager (Li-COR) at the 700 nm channel. The in-gel fluorescence images were processed with ImageJ software (v1.47, NIH), and the intensities were quantified with Image Studio (v5.2, Li-COR) with background subtraction. The coomassie images were processed and quantified with the Image Studio software with background subtraction. For analysis of the cellular potency, the in-gel fluorescence intensities of the two MAGL bands were averaged, normalized with the total coomassie intensity of the corresponding sample, and fitted with a dose-response equation with Prism v7.02 (GraphPad). […] The media were then placed with fresh media containing 2 μM of TCO-TAMRA, and the cells were incubated at 37° C. for 30 min. […] The protein concentration was measured with a bicinchoninic acid (BCA) assay kit (Thermo Scientific) and normalized. In-gel fluorescence and data analysis. […]

[4] = Stopped-flow kinetics of 9 versus 10 with axial 5-hydroxy-trans-cyclooctene in methanol; conditions: 25° C.; for kobs, average rate constant: 0.05 mM tetrazine, 0.5 mM trans-cyclooctene
Method: 0.1 mM solutions (10 mL) in methanol were prepared from stock solutions of 9 (16.3 mg in 632 μL DMF, 50 mM) and 10 (10.0 mg in 422 μL MeOH, 100 mM). A 1.0 mM solution (25 mL) in methanol of axial 5-hydroxy-trans-cyclooctene 11 was also prepared from a stock solution (29.0 mg in 460 μL MeOH, 500 mM). The reaction between tetrazine and a trans-cyclooctene was measured under pseudo-first order conditions using a SX 18MV-R stopped-flow spectrophotometer (Applied Photophysics Ltd.). The 0.1 mM solution of tetrazines 9 or 10 and the 1.0 mM solution of trans-cyclooctene 11 were injected as equal volumes via syringe into the stopped-flow instrument which was held at 25° C., resulting in a final concentration of the tetrazine of 0.05 mM and a final concentration of the trans-cyclooctene of 0.5 mM. The reaction was monitored by the absorbance decay of tetrazine measured at 290 nm. Data points were collected every 0.1 second for 400 seconds and reaction was repeated in triplicate. Prism software was used to obtain the observed rate of each reaction, kobs, which was determined by nonlinear regression analysis resulting in average rate constants of 0.01033 s^−1 for 9 and 0.00975 s^−1 for 10. The relative rate, krel, of 9 versus 10 was thus determined to be 1.06.

Row | IC50 (human MAGL enzyme) | SMILES | k2, second order rate constant [1] | kobs ([1]; TCO 0.25 mM) | kobs ([1]; TCO 0.30 mM) | kobs ([1]; TCO 0.35 mM) | kobs ([1]; TCO 0.40 mM) | krel [1] | other results
1 | 12 nM | O=C(OC(C(F)(F)F)C(F)(F)F)N1CCC(CNS(=O)(=O)c2ccc(-c3nnc(-c4ccoc4)nn3)cc2)CC1 [100a, 1,1,1,3,3,3-hexafluoropropan-2-yl 4-((4-(6-(furan-3-yl)-1,2,4,5-tetrazin-3-yl)phenylsulfonamido)methyl)piperidine-1-carboxylate] |  |  |  |  |  |  | kobs [3]: 0.003623 s⁻¹; krel [3]: 3
2 | 46 nM | C=C(OCC)c1nnc(-c2ccc(S(=O)(=O)NCC3CCN(C(=O)OC(C(F)(F)F)C(F)(F)F)CC3)cc2)nn1 [100b, 1,1,1,3,3,3-hexafluoropropan-2-yl 4-((4-(6-(1-ethoxyvinyl)-1,2,4,5-tetrazin-3-yl)phenylsulfonamido)methyl)piperidine-1-carboxylate] |  |  |  |  |  |  | kobs [3]: 0.031 s⁻¹; krel [3]: 25; fold more reactive than 100a ([3]; stopped flow kinetics with 5-hydroxyTCO): 8.6 fold

The remaining lines, values behind:

Row | SMILES | IC50 (human MAGL enzyme) | k2, second order rate constant [1] | kobs ([1]; TCO 0.25 mM) | kobs ([1]; TCO 0.30 mM) | kobs ([1]; TCO 0.35 mM) | kobs ([1]; TCO 0.40 mM) | krel [1] | other results
3 | COC(=O)CCc1nncnn1 [4f, methyl 3-(1,2,4,5-tetrazin-3-yl)propanoate] |  | 1591 ± 25.74 M⁻¹ s⁻¹ | 0.53 s⁻¹ | 0.61 s⁻¹ | 0.68 s⁻¹ | 0.77 s⁻¹ | 8.0 | 
4 | COC(=O)CCc1nnc(-c2cccc(C#N)c2)nn1 [5i, methyl 3-(6-(3-cyanophenyl)-1,2,4,5-tetrazin-3-yl)propanoate] |  | 69.88 ± 4.824 M⁻¹ s⁻¹ | 0.21 s⁻¹ | 0.24 s⁻¹ | 0.029 s⁻¹ | 0.032 s⁻¹ | 0.35 | 
5 | COC(=O)CCc1nnc(-c2ccoc2)nn1 [5l, methyl 3-(6-(furan-3-yl)-1,2,4,5-tetrazin-3-yl)propanoate] |  |  |  |  |  |  |  | logP (Experimental log P): 1.2; decomposition per day [2]: 1.7%; times less reactive than 5b ([1]; reaction with 5-hydroxyTCO): 2.9 times
6 | C=C(OCC)c1nnc(-c2ccccc2)nn1 [6a, 3-(1-ethoxyvinyl)-6-phenyl-1,2,4,5-tetrazine] |  | 2007 ± 101.3 M⁻¹ s⁻¹ | 0.52 s⁻¹ | 0.62 s⁻¹ | 0.70 s⁻¹ | 0.83 s⁻¹ | 10 | decomposition per day [2]: 0.8%
7 | O=C(OC(C(F)(F)F)C(F)(F)F)N1CCC(C(O)(c2ccc3c(c2)OCO3)c2ccc3c(c2)OCO3)CC1 [KML29, reference compound] |  |  |  |  |  |  |  | competition of probe 9 labeling of MAGL (endogenous MAGL; probe 9 32 nM 1 h after pre-treatment with KML29 300 nM 1 h): competed
8 | Cc1nnc(-c2ccc(-n3ccc(C4CCN(C(=O)OC(C(F)(F)F)C(F)(F)F)CC4)n3)cc2)nn1 [compound 9, 1,1,1,3,3,3-hexafluoropropan-2-yl 4-(1-(4-(6-methyl-1,2,4,5-tetrazin-3-yl)phenyl)-1H-pyrazol-3-yl)piperidine-1-carboxylate] | 31 nM |  |  |  |  |  |  | off-target labeling in live cells (endogenous MAGL; human brain vascular pericytes, in-gel fluorescence, consistent with ABHD6): labeled an additional protein at ˜35 kDa; IC50 (endogenous MAGL; human brain vascular pericytes, probe 1 h, then 2 μM TCO-TAMRA 30 min, in-gel fluorescence, read-out: cellular IC50 of MAGL labeling): 8 nM; kobs, average rate constant [4]: 0.01033 s⁻¹; krel of 9 versus 10 [4]: 1.1 and 1.06
9 | Cc1nnc(-c2ccc(CN)cc2)nn1 [compound 10, 3-methyl-6-(4-aminomethyl)tetrazine, reference compound] |  |  |  |  |  |  |  | kobs, average rate constant [4]: 0.00975 s⁻¹

Reference: US11767302B2, “Reagents and methods for tetrazine synthesis” (University of Delaware, priority 2020, dated 2023)
